US20220289791A1, “LACTATE DEHYDROGENASE INHIBITOR POLYPEPTIDES FOR USE IN THE TREATMENT OF CANCER” (UNIVERSITÉ CATHOLIQUE DE LOUVAIN, priority 2019, published 2022)
*1 amine or outer side, *2 acyl side, *3 side chain or, on linkers, in order; H or OH if unused. Where a SMILES comes first, the peptide text is derived from it. Bridges are numbered along the chain shown (N, C = ends). C6F4(1,4-diyl) = Fc1c(F)c([*:2])c(F)c(F)c1[*:1]

Legend:
[1] = test system: Mia Paca-2 human pancreatic cancer cells; test: Seahorse OCR and ECAR measurement; assay type: cell-based; settings: 200 μM, 4 h incubation
Description: Macrocyclic peptide MP7 (SEQ ID NO: 61) was evaluated at 200 μM against Mia Paca-2 human pancreatic cancer cells (ATCC®).
The oxygen consumption rate (OCR) and extracellular acidification rate (ECAR) were measured on a Seahorse XF96 analyzer (Agilent®) with a combination of XF cell mito stress kit (Agilent®) and 2-deoxy-D-glucose (2DG; Sigma Aldrich®). Seahorse experiments were performed using 10,000 cells/well in DMEM medium with 10 mmol/L of D-glucose and 1 mmol/L of L-Glutamine Cells were incubated for 1 h in a CO2-free incubator before analysis. […] Oximetry before the addition of any agent provided the basal respiration rate of the cells; ATP-linked reparation was determined after the addition of 1 μM of oligomycin and the maximal respiration rate of the cells after the addition of 1 μM of FCCP. All data were normalized to cell numbers measured right before oximetry using a SpectraMax miniMax 300 imaging cytometer (Molecular Devices®). Macrocyclic peptide MP7 in PBS or PBS alone (control experiment) were added directly into the medium and incubated with Mia Paca-2 cells during 4 h before conducting Seahorse experiments on the medium composed of the Mia Paca-2 cells with or without macrocyclic peptide MP7.

[2] = target: T1, rabbit LDH5 (rLDH5) (Oryctolagus cuniculus, UniProt P13491); test: Denaturation assay: rLDH5 fluorescence recovery after acidic exposure; assay type: biochemical; settings: 200 nM rLDH5, 50 μM peptide, pH 5 then neutral pH
T1 construct: purchased Sigma-Aldrich
Description: Rabbit LDHA commercial solution (Sigma-Aldrich®) in an ammonium sulfate suspension (pH-7, 3.2 M) was first diluted to 1 mg/ml in a solution of NaCl 200 mM and then dialyzed at 4° C. 2×2 h against 200 mM NaCl. The stock solution of 1 mg/ml was then diluted to 30 μg/ml (800 nM) in NaCl 20 0 mM to give the assay solution. Assay solution was mixed 1:1 with acetate-chloride buffer (20 mM Acetic acid/Acetate, 180 mM NaCl, 1 mM DTT pH 5) and stored on ice for 30 minutes. Samples were then removed from ice and let warm up for 2 minutes. The acidic solution was then diluted 1:1 with a 250 mM phosphate buffer (pH 7.6) containing or not the inhibitory peptide to yield a 7.5 μg/ml (200 nM) final concentration of re-associating LDHA. Samples of the resulting solutions were then subjected to kinetic experiments of the recovery of intrinsic fluorescence (Exc=286 nm, Em=350 nm, 10′, rt).
An experiment was thus designed to follow the recovery of LDH tetramers after a dissociation step initiated by acidic conditions. […] Monitoring of the rLDH5 tetrameric state was performed by following its intrinsic tryptophan fluorescence: 6 tryptophan residues can be found in each rLDHA monomer, three of them being located at the dimer-dimer interface. As the tryptophan quantum yield decreases in a polar environment, dimeric LDHs show very weak tryptophan fluorescence compared to the tetrameric form. […] Such decay can be compared to the difference in tryptophan fluorescence between tetrameric LDH1 and dimeric LDHBtr.

[3] = target: dimeric model of LDH (Homo sapiens, UniProt P07195); test: nanoDSF thermal denaturation of dimeric LDH model; assay type: binding
[4] = target: truncated LDHB (LDHBtr) (Homo sapiens, UniProt P07195); test: Microscale thermophoresis (MST), Example 2, macrocycles against truncated LDHB; assay type: binding; settings: MST traces at 10 s to 20 s on time
Description: MST measurements were performed on a Nanotemper Monolith NT.115 instrument (NanoTemper Technologies®) using Red-dye-NHS fluorescent labeling. Each LDH sample, purified to homogeneity, was labeled with the Monolith Red-dye-NHS 2nd generation labeling dye (NanoTemper Technologies®), according to the manufacturer's instructions. Measurements were performed in 50 mM sodium phosphate, pH 7.6, and 100 mM NaCl containing 0.05% Tween-20 in premium-treated capillaries (NanoTemper Technologies®). The final concentrations of either labeled protein in the assay were 100 nM. The ligands (NADH and peptides) were titrated in 1:1 dilutions following manufacturer's recommendations. All binding reactions were incubated for 5 min at room temperature after loading into capillaries. Experiments were performed in triplicates using 40% LED power, medium MST power, Laser On time 20 s and Laser Off time 3 s. Peptides were evaluated for their thermophoretic pattern, and Kd's were extracted from raw data at a 10 to 20 s MST on time according to manufacturer's instructions. Regarding interaction of 7 with LDH5, Kd was extracted from the raw fluorescence. A denaturation test was performed accordingly to manufacturer recommendation and excluded any nonspecific spectral interaction between 7 and the red-dye. All Kd's of interacting macrocycles and peptides were obtained in triplicate and corrected by taking into account the molecular weight of the TFA counter ion.

[5] = target: human LDH1 (Homo sapiens, UniProt P07195); test: nanoDSF thermal denaturation of LDH1; assay type: binding
[6] = target: T2, human LDH5 (Homo sapiens, UniProt P00338); test: nanoDSF thermal denaturation of LDH5; assay type: binding
T2 construct: purchased Abnova

[7] = target: LDHBtr (Homo sapiens, UniProt P07195); test: Intrinsic fluorescence assay on dimeric LDHBtr; assay type: biochemical
Description: Full tryptophan fluorescence spectra were recorded using an excitation wavelength of 286 nm and recording the emission spectra from 320 nm to 400 nm at room temperature. Raw fluorescence of every experiments was further subtracted to a corresponding control experiment without the protein. Experiments were performed in a 50 mM sodium phosphate and 100 mM NaCl, pH 7.6, buffer. For LDH dissociation into subunits, increasing amounts of guanidinium/HCl were put in contact with the studied proteins (1.3 μM), and fluorescence spectra were recorded afterwards. Guanidinium/HCl concentrations ranged from 0.3 M to 2 M.

human LDH1, sequence (P07195 whole entry): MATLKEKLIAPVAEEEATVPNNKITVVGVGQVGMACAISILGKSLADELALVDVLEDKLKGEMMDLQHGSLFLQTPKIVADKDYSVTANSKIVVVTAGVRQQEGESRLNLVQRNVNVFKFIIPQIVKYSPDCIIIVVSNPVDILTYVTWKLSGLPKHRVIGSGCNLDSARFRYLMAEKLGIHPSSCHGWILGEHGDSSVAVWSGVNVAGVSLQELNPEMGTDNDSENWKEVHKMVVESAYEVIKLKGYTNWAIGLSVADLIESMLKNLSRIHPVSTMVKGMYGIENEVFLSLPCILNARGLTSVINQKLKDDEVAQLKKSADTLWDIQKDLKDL
LDHBtr, sequence (P07195 21-334): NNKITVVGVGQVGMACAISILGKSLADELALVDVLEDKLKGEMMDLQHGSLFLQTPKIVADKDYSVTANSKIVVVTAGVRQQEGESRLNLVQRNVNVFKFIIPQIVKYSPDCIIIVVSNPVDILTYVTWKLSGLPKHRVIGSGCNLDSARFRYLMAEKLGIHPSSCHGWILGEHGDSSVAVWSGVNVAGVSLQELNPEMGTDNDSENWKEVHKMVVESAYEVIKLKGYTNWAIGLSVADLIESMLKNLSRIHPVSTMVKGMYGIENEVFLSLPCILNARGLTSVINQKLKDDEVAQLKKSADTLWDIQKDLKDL
dimeric model of LDH, sequence (P07195 21-334): as above
truncated LDHB (LDHBtr), sequence (P07195 21-334): as above

LDH5 fluorescence recovery after acidification [2]: significantly interfered | destabilization of dimeric model of LDH [3]: did not induce such destabilization | Kd [4]: 11 µM | ΔTm at 400 µM ([5]; LDH1, MP7 at 400 μM): -1.5 °C | ΔTm at 400 µM ([6]; LDH-5 tetramer, MP7 at 400 μM): -5 °C | decay of LDHBtr fluorescence spectrum [7]: did not induce a comparative decay
SMILES: CC[C@H](C)[C@H](NC(=O)[C@H](CC(C)C)NC(=O)[C@H](CCCCN)NC(=O)[C@@H]1CSc2c(F)c(F)c(c(F)c2F)SC[C@H](N)C(=O)N[C@@H]([C@@H](C)O)C(=O)N[C@@H](CC(C)C)C(=O)N[C@@H](CCCCN)C(=O)N1)C(N)=O [MP7, CTLKCKLI] (H-CTLKCKLI-NH2; linker 1-5 via C6F4(1,4-diyl); N-terminus assumed)
glycolytic flux (ECAR) [1]: increase | mitochondrial oxygen consumption rate (OCR) [1]: strong decrease | effect on LDH1 stability ([5]; nanoDSF): induced a destabilizing conformational change | effect on LDH5 stability ([6]; nanoDSF): induced a destabilizing conformational change
